Reference: publication PMC8151276, “An Integrated Approach toward NanoBRET Tracers for Analysis of GPCR Ligand Engagement” (Molecules, 2021)

How the values were obtained:
Type in all cases: binding
CCR1 = molecular target: T1, CCR1 (Homo sapiens, UniProt P32246); experiment: NanoBRET screen HiBiT-CCR1 in HEK293
T1 construct: purchased Promega (in-house HiBiT-GPCR construct library, NanoBRET)
T1 sequence (P32246 1-355): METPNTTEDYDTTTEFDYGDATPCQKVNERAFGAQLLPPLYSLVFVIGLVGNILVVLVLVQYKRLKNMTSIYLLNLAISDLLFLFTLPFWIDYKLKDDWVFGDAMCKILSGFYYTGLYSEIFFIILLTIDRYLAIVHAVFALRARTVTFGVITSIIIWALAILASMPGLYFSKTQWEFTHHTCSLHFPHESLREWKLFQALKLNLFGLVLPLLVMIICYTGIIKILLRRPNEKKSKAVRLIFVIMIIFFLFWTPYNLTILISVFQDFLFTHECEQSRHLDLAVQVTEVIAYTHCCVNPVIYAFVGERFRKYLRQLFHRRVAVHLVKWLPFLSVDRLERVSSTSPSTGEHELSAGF
Procedure: (§1) Each tracer candidate was screened across the entire library of HiBiT-GPCR constructs using NanoBRET as the detection modality. As depicted in Figure 4A, the specificity of interactions was evaluated through decrease in BRET due to competitive displacement of a bound tracer by excess parental compound. Each tracer was analyzed for binding to each HiBiT-GPCR fusion in the absence and in the presence of competing parental compound. Briefly, HEK293 cells were transfected with HiBiT-GPCR constructs diluted into promoterless DNA to reduce expression and maximize translocation to the cell surface. Each tracer candidate was then screened at concentrations of 1 μM and 0.1 μM across cells expressing these fusions. Cells were treated for 1.5 h with tracer either alone or in the presence of 20 μM competing parental compound (i.e., control). BRET was measured upon addition of purified LgBiT and subsequent complementation with HiBiT genetically fused to a GPCR. The specificity of interactions was assessed through a decrease in BRET signal due to competitive displacement of the bound tracer. To further gauge the robustness of these interactions, the fold response over the control (i.e., BRETtracer/BRETcontrol) was calculated. We chose a 1.5-fold response, which translates to ≥7-fold signal over noise as the minimal threshold required to score an interaction as positive. […]. Below we highlight the screening results obtained for our exemplary fluorescent tracers based on Clozapine, Amitriptyline and AZD1283.
(§2) HiBiT-GPCR DNA constructs were diluted in 10 mM Tris pH 8 to a final concentration of 0.01 μg/μL, arrayed in 96-well plates and stored at −20 °C. For transfection, HEK293 cells were suspended in Opti-MEM (without phenol red) supplemented with 2% fetal bovine serum (Seradigm) and 100 units/mL penicillin–streptomycin (Gibco) at a final concentration of 220,000 cells/mL and dispensed into white 96-well plates at 90 μL/well. Subsequent transfections and screens were carried using an Agilent Bravo Automated Liquid Handling Platform. First, the 96-well HiBiT DNA arrays were diluted 25-fold in Opti-MEM (without serum or phenol red) to a final concentration of 0.0004 μg/μL and 20 μL of the diluted DNAs were transferred into new 96-well plates. Next, promoterless carrier DNA (1 μg/μL) was diluted 25-fold (0.04 μg/μL) and then dispensed into the diluted arrays at 20 μL/well. Following brief mixing, Viafect transfection reagent (Promega) diluted 16-fold into Opti-MEM was dispensed into the plates at 40 μL/well. After mixing by pipetting, plates were incubated for 10 min on the pipetting station deck. The DNA-transfection reagent complexes were then added to plates containing cells. To facilitate the screen, 10 μL of DNA-transfection reagent complexes were added in duplicates to the top 4 and bottom 4 rows, resulting in two identical 48-well arrays per plate. Plates with transfected cells were incubated for 18–20 h at 37 °C/5% CO2. A screen of each tracer across the entire library using two different concentrations requires duplicate plates of transfected cells. Depending on the number of tracers being screened, transfections can be scaled up using the same ratios. The next day, for each tracer, four 20× screening solutions in tracer dilution buffer (Promega) were prepared: two duplicates at final concentration of 20 μM and two duplicates at a final concentration of 2 μM. A competing unmodified compound was added to one of each duplicate at a final concentration of 400 μM. The four resulting solutions were diluted 4-fold in Opti-MEM without serum or phenol red to generate 5× solutions (5 µM and 0.5 µM tracer +/− 100 μM competing compound). To screen the library, a BioTek MultiFlo FX liquid dispenser was used to dispense 22.5 µL of tracer solution to the top 4 rows and 22.5 µL tracer + competing compound solution to the 4 bottom rows. Plates were briefly mixed on an orbital shaker and incubated for 1.5 h at room temperature. […]

CCR7 = molecular target: T2, CCR7 (Homo sapiens, UniProt P32248); experiment: NanoBRET screen HiBiT-CCR7 in HEK293
T2 construct: purchased Promega (in-house HiBiT-GPCR construct library, NanoBRET)
T2 sequence (P32248 25-378): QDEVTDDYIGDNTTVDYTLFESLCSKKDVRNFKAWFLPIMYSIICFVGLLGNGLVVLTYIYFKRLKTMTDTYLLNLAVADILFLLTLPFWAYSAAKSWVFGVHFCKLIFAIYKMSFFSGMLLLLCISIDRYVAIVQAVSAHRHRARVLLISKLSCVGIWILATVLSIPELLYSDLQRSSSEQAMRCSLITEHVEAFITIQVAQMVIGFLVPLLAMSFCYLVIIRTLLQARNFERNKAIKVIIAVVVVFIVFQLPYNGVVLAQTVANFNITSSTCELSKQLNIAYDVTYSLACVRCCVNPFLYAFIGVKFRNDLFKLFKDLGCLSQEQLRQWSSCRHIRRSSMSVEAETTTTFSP
Procedure: as §1, §2

CXCR5 = molecular target: T3, CXCR5 (Homo sapiens, UniProt P32302); experiment: NanoBRET screen HiBiT-CXCR5 in HEK293
T3 construct: purchased Promega (in-house HiBiT-GPCR construct library, NanoBRET)
T3 sequence (P32302 1-372): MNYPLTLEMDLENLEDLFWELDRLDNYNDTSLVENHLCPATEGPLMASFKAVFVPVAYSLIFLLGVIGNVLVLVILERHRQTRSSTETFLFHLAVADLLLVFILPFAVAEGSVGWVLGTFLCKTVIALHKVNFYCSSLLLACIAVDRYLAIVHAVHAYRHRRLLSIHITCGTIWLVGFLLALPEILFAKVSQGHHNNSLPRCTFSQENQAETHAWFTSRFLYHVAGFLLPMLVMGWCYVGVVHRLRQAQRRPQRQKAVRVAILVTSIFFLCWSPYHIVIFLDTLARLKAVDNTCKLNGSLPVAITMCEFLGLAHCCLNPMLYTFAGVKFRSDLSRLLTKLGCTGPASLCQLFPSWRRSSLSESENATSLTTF
Procedure: as §1, §2

Structure (SMILES)	NanoBRET Fold Response (CCR1; CCR1, tracer 0.1μM)	NanoBRET Fold Response (CCR1; CCR1, tracer 1μM)	NanoBRET Fold Response (CCR7; CCR7, tracer 0.1μM)	NanoBRET Fold Response (CCR7; CCR7, tracer 1μM)	NanoBRET Fold Response (CXCR5; CXCR5, tracer 0.1μM)	NanoBRET Fold Response (CXCR5; CXCR5, tracer 1μM)	also measured
N#CN=C(NCCCOc1cccc(CN2CCCCC2)c1)NCCNC(=O)CCOCCOCCOCCOCCNC(=O)CCc1ccc2n1[B-](F)(F)[N+]1=C(c3ccc[nH]3)C=CC1=C2 [Aminopotentidine-2-NB590]	0.95	1.03	0.96	1.01	1.04	0.99	
O=C(CCc1ccc2n1[B-](F)(F)[N+]1=C(c3ccc[nH]3)C=CC1=C2)NCc1ccc(C(=O)NCCOCCOCCNCC(O)COc2cccc3ccccc23)cc1 (stereo not drawn) [Propranolol-3-NB590]							NanoBRET Fold Response (CCR1; CCR1, 0.1μM): 1.03; NanoBRET Fold Response (CCR1; CCR1, 1μM): 0.97; NanoBRET Fold Response (CCR7; CCR7, 0.1μM): 1.03; NanoBRET Fold Response (CCR7; CCR7, 1μM): 1.01; NanoBRET Fold Response (CXCR5; CXCR5, 0.1μM): 1.02; NanoBRET Fold Response (CXCR5; CXCR5, 1μM): 1.06
O=C(CCc1ccc2n1[B-](F)(F)[N+]1=C(c3ccc[nH]3)C=CC1=C2)NCc1ccc(C(=O)NCCOCCC(=O)N[C@@H]2CC[C@@]3(O)[C@H]4Cc5ccc(O)c6c5[C@@]3(CCN4CC3CC3)[C@H]2O6)cc1 [Naltrexone-3-NB590]	1.03	0.66	1.07	1.05	0.57	0.57	
COc1ccccc1N1CCN(CCCCN2C(=O)c3ccc(CNC(=O)CCOCCNC(=O)c4ccc(CNC(=O)CCc5ccc6n5[B-](F)(F)[N+]5=C(c7ccc[nH]7)C=CC5=C6)cc4)cc3C2=O)CC1 [NAN-190-3-NB590]	1.04	0.89	1.01	1.00	1.37	0.68	
Cc1cc2c(s1)Nc1ccccc1N=C2N1CCN(CCCNC(=O)CCOCCOCCOCCOCCNC(=O)CCc2ccc3n2[B-](F)(F)[N+]2=C(c4ccc[nH]4)C=CC2=C3)CC1 [Olanzapine-a-2-NB590]	1.02	0.98	1.01	1.05	0.98	0.86	
CCCn1c(=O)c2[nH]c(-c3ccc(OCC(=O)NCCNC(=O)CCOCCNC(=O)c4ccc(CNC(=O)CCc5ccc6n5[B-](F)(F)[N+]5=C(c7ccc[nH]7)C=CC5=C6)cc4)cc3)nc2n(CCC)c1=O [XAC-3-NB590]	0.83	1.09	0.99	1.04	1.23	0.87	
CN(CCC=C1c2ccccc2CCc2ccccc21)C(=O)CCOCCOCCOCCOCCNC(=O)CCc1ccc2n1[B-](F)(F)[N+]1=C(c3ccc[nH]3)C=CC1=C2 [Amitriptyline-e-2-NB590]							NanoBRET Fold Response (CCR1; tracer at 1μM): 0.99; NanoBRET Fold Response (CCR7; tracer at 1μM): 1.03; NanoBRET Fold Response (CXCR5; tracer at 1μM): 0.98
COc1ccc2c(n1)c(CCNC(C)=O)cn2CCNC(=O)CCc1ccc2n1[B-](F)(F)[N+]1=C(c3ccc[nH]3)C=CC1=C2 [Azamelatonin-1-NB590]							NanoBRET Fold Response (CCR1; 0.1μM tracer): 0.90; NanoBRET Fold Response (CCR1; 1μM tracer): 1.04; NanoBRET Fold Response (CCR7; 0.1μM tracer): 0.88; NanoBRET Fold Response (CCR7; 1μM tracer): 0.96; NanoBRET Fold Response (CXCR5; 0.1μM tracer): 0.93; NanoBRET Fold Response (CXCR5; 1μM tracer): 1.19
